Test results as given in US11000033B2, “Ketone or oxime compound, and herbicide” (NISSAN CHEMICAL CORPORATION, priority 2014, dated 2021).

Tests used:
Type in all cases: in vivo
beet = experiment: Test Example 4: effect on crop by soil treatment (symbol f); conditions: application herbicide amount 320 g/ha
In short: (§1)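 Soil-treatment setup: crop and weed seeds were spot-sown into sterilized diluvial soil, then buried beneath approximately 1.5 cm of it, and the boxes were housed in a 25–30° C. greenhouse.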

[1] = test system: Echinochloa oryzacola Vasing.; experiment: Test Example 2: herbicidal activity, application during weed generation in submerged conditions (symbol A); conditions: Table 23; application herbicide amount 320 g/ha; grade 0-5 by criteria of Test Example 1
In short: (§2)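 Steps: fill pots with alluvial soil; add water to 4 cm depth; co-sow the three weeds; grow at 25° C. to 30° C. under glass; at 1–2 leaves, dose the floodwater with diluted emulsion; rate damage visually after 3 weeks.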

Monochoria vaginalis [2] = experiment: Test Example 2: herbicidal activity, application during weed generation in submerged conditions (symbol C); conditions: Table 23; application herbicide amount 320 g/ha; grade 0-5 by criteria of Test Example 1
In short: as §2

Scirpus juncoides = experiment: Test Example 1: herbicidal activity, application before weed generation in submerged conditions (symbol B); conditions: application herbicide amount 320 g/ha
In short: (§3)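 Weed control was rated three weeks after treatment on a 0–5 scale, from 5% or lower up to 90% or more. Pre-emergence water-surface application of diluted emulsion at a predetermined rate was made on the day of sowing, in flooded (4 cm water) pots containing rice seedlings, kept at 25–30 °C under glass.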

Monochoria vaginalis [3] = experiment: Test Example 1: herbicidal activity, application before weed generation in submerged conditions (symbol C); conditions: application herbicide amount 320 g/ha
In short: as §3

Avena fatua = experiment: Test Example 5: herbicidal effect by foliage application, plastic box (symbol I); conditions: 320 g/ha, 3 weeks after application
In short: (§4)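 Greenhouse foliar test: seedlings at 14 days, grown 25° C. to 30° C. in sterilized diluvial soil; compound applied as an aqueous dilution of an emulsion; response read 3 weeks after spraying.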

[4] = test system: directly sowed rice plant; experiment: Test Example 3: effect on crop by foliage application, Wagner pot (symbol b); conditions: application herbicide amount 320 g/ha
In short: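 Alluvial soil in a 1/10000-are Wagner pot was flooded to a water depth of 0.1–0.5 cm. Echinochloa crus-galli var. crus-galli, Leptochloa chinensis, Cyperus difformis and rice were sown into it and grown in a greenhouse at 25–30 °C.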

Amaranthus retroflexus = experiment: Test Example 5: herbicidal effect by foliage application, plastic box (symbol N); conditions: 320 g/ha, 3 weeks after application
In short: as §4

Lolium multiflorum Lam. = experiment: Test Example 4: herbicidal effect by soil treatment (symbol K); conditions: application herbicide amount 320 g/ha
In short: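 Seeds were sown in sterilized diluvial soil, covered with about 1.5 cm of soil, and the soil surface was sprayed with a water-diluted emulsion of the compound at a predetermined rate. Plants grew in a greenhouse at 25° C. to 30° C.; effects were scored visually 3 weeks after application.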

soybean = experiment: Test Example 4: effect on crop by soil treatment (symbol d); conditions: application herbicide amount 320 g/ha
In short: as §1

wheat [5] = experiment: Test Example 5: effect on crop by foliage application, plastic box (symbol e); conditions: 320 g/ha, 3 weeks after application
In short: (§5)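 Box culture: sterile diluvial soil, seeds spot-sown, ~1.5 cm cover, raised under glass at 25–30° C.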

wheat [6] = experiment: Test Example 4: effect on crop by soil treatment (symbol e); conditions: application herbicide amount 320 g/ha
In short: as §1

rapeseed = experiment: Test Example 5: effect on crop by foliage application, plastic box (symbol g); conditions: 320 g/ha, 3 weeks after application
In short: as §5

| Compound | f: beet, effect on crop grade (beet) | Herbicidal effect grade, A: Echinochloa oryzacola Vasing. [1] | Herbicidal effect grade, C: Monochoria vaginalis (Monochoria vaginalis [2]) | Herbicidal effect grade, B: Scirpus juncoides (Scirpus juncoides) | Herbicidal effect grade, C: Monochoria vaginalis (Monochoria vaginalis [3]) | I: Avena fatua, herbicidal effect grade (Avena fatua) | effect on crop b (directly sowed rice plant), grade 0-5 [4] | N: Amaranthus retroflexus, herbicidal effect grade (Amaranthus retroflexus) | K: Lolium multiflorum Lam., herbicidal effect grade (Lolium multiflorum Lam.) | d: soybean, effect on crop grade (soybean) | e: wheat, effect on crop grade (wheat [5]) | e: wheat, effect on crop grade (wheat [6]) | g: rapeseed, effect on crop grade (rapeseed) |
| --- | --- | --- | --- | --- | --- | --- | --- | --- | --- | --- | --- | --- | --- |
| CC#Cc1cc(C)c(C2=C(O)CC(CC(C)=NOC)C2=O)c(CC)c1 (mixture of isomers) [6-006] | 0 (Herbicidal ratio of 5% or lower (almost no effect)) | 5 (Herbicidal ratio of 90% or more (almost completely withered)) | 1 (Herbicidal ratio of 5% or higher and lower than 20%) | 5 (Herbicidal ratio of 90% or more (almost completely withered)) | 1 (Herbicidal ratio of 5% or higher and lower than 20%) | 1 (Herbicidal ratio of 5% or higher and lower than 20%) | 5 (Herbicidal ratio of 90% or more (almost completely withered)) | 0 (Herbicidal ratio of 5% or lower (almost no effect)) | 5 (Herbicidal ratio of 90% or more (almost completely withered)) | 0 (Herbicidal ratio of 5% or lower (almost no effect)) | 5 (Herbicidal ratio of 90% or more (almost completely withered)) | 5 (Herbicidal ratio of 90% or more (almost completely withered)) | 4 (Herbicidal ratio of 70% or higher and lower than 90%) |
| CC#Cc1cc(C)c(C2=C(O)CC(CC(C)=NOC)C2=O)c(C)c1 (mixture of isomers) [6-009] | 2 (Herbicidal ratio of 20% or higher and lower than 40%) | 3 (Herbicidal ratio of 40% or higher and lower than 70%) | 0 (Herbicidal ratio of 5% or lower (almost no effect)) | 2 (Herbicidal ratio of 20% or higher and lower than 40%) | 0 (Herbicidal ratio of 5% or lower (almost no effect)) | 4 (Herbicidal ratio of 70% or higher and lower than 90%) | 5 (Herbicidal ratio of 90% or more (almost completely withered)) | 0 (Herbicidal ratio of 5% or lower (almost no effect)) | 5 (Herbicidal ratio of 90% or more (almost completely withered)) | 0 (Herbicidal ratio of 5% or lower (almost no effect)) | 5 (Herbicidal ratio of 90% or more (almost completely withered)) | 5 (Herbicidal ratio of 90% or more (almost completely withered)) | 4 (Herbicidal ratio of 70% or higher and lower than 90%) |
| CCc1cc(C#C[Si](C)(C)C)cc(C)c1C1=C(O)CC(CC(C)=NOC)C1=O (mixture of isomers) [6-008] | 0 (Herbicidal ratio of 5% or lower (almost no effect)) | 5 (Herbicidal ratio of 90% or more (almost completely withered)) | 5 (Herbicidal ratio of 90% or more (almost completely withered)) | 5 (Herbicidal ratio of 90% or more (almost completely withered)) | 5 (Herbicidal ratio of 90% or more (almost completely withered)) | 0 (Herbicidal ratio of 5% or lower (almost no effect)) | 5 (Herbicidal ratio of 90% or more (almost completely withered)) | 0 (Herbicidal ratio of 5% or lower (almost no effect)) | 5 (Herbicidal ratio of 90% or more (almost completely withered)) | 0 (Herbicidal ratio of 5% or lower (almost no effect)) | 4 (Herbicidal ratio of 70% or higher and lower than 90%) | 4 (Herbicidal ratio of 70% or higher and lower than 90%) | 0 (Herbicidal ratio of 5% or lower (almost no effect)) |
| CON=C(C)CC1CC(O)=C(c2c(C)cc(-c3ccccc3)cc2C)C1=O (stereo not drawn) [6-015] | 0 (Herbicidal ratio of 5% or lower (almost no effect)) | 5 (Herbicidal ratio of 90% or more (almost completely withered)) | 5 (Herbicidal ratio of 90% or more (almost completely withered)) | 5 (Herbicidal ratio of 90% or more (almost completely withered)) | 5 (Herbicidal ratio of 90% or more (almost completely withered)) | 4 (Herbicidal ratio of 70% or higher and lower than 90%) | 5 (Herbicidal ratio of 90% or more (almost completely withered)) | 2 (Herbicidal ratio of 20% or higher and lower than 40%) | 5 (Herbicidal ratio of 90% or more (almost completely withered)) | 0 (Herbicidal ratio of 5% or lower (almost no effect)) | 0 (Herbicidal ratio of 5% or lower (almost no effect)) | 0 (Herbicidal ratio of 5% or lower (almost no effect)) | 4 (Herbicidal ratio of 70% or higher and lower than 90%) |
| CCc1cc(-n2cc(Cl)cn2)cc(C)c1C1=C(O)CC(CC(C)=NOC)C1=O (mixture of isomers) [6-005] | 0 (Herbicidal ratio of 5% or lower (almost no effect)) | 5 (Herbicidal ratio of 90% or more (almost completely withered)) | 3 (Herbicidal ratio of 40% or higher and lower than 70%) | 5 (Herbicidal ratio of 90% or more (almost completely withered)) | 3 (Herbicidal ratio of 40% or higher and lower than 70%) | 5 (Herbicidal ratio of 90% or more (almost completely withered)) | 5 (Herbicidal ratio of 90% or more (almost completely withered)) | 4 (Herbicidal ratio of 70% or higher and lower than 90%) | 5 (Herbicidal ratio of 90% or more (almost completely withered)) | 1 (Herbicidal ratio of 5% or higher and lower than 20%) | 4 (Herbicidal ratio of 70% or higher and lower than 90%) | 4 (Herbicidal ratio of 70% or higher and lower than 90%) | 0 (Herbicidal ratio of 5% or lower (almost no effect)) |
| CON=C(C)CC1CC(O)=C(c2c(C)cc(C#CC3CC3)cc2C)C1=O (mixture of isomers) [6-010] | 0 (Herbicidal ratio of 5% or lower (almost no effect)) | 5 (Herbicidal ratio of 90% or more (almost completely withered)) | 0 (Herbicidal ratio of 5% or lower (almost no effect)) | 4 (Herbicidal ratio of 70% or higher and lower than 90%) | 1 (Herbicidal ratio of 5% or higher and lower than 20%) | 3 (Herbicidal ratio of 40% or higher and lower than 70%) | 5 (Herbicidal ratio of 90% or more (almost completely withered)) | 0 (Herbicidal ratio of 5% or lower (almost no effect)) | 5 (Herbicidal ratio of 90% or more (almost completely withered)) | 0 (Herbicidal ratio of 5% or lower (almost no effect)) | 4 (Herbicidal ratio of 70% or higher and lower than 90%) | 4 (Herbicidal ratio of 70% or higher and lower than 90%) | 0 (Herbicidal ratio of 5% or lower (almost no effect)) |
